In ChEMBL document CHEMBL2029208 (Bioorg Med Chem, 2012):
Converted amounts (≈) assume the structure as drawn.

system: Mycobacterium tuberculosis; assay: microbe, parasite or virus in culture; assay type: functional; conditions: H37Ra

Structure (SMILES) | MIC
COc1ccccc1NC(=O)NC12CC3CC(CC(C3)C1)C2 | 30 µg/mL (≈ 99.9 µM)
O=C(Nc1cccc(OC(F)F)c1)NC12CC3CC(CC(C3)C1)C2 | 0.8 µg/mL (≈ 2.38 µM)
CC(=O)c1ccc(NC(=O)NC23CC4CC(CC(C4)C2)C3)cc1 | 2 µg/mL (≈ 6.4 µM)
O=C(NC12CC3CC(CC(C3)C1)C2)N[C@H]1CC[C@H](Oc2cc(F)cc(F)c2)CC1 | > 41 µg/mL
O=C(Nc1ccc(Oc2ccc(F)cc2)cc1)NC12CC3CC(CC(C3)C1)C2 | 0.6 µg/mL (≈ 1.58 µM)
O=C(Nc1cccc(Oc2ccc(F)cc2)c1)NC12CC3CC(CC(C3)C1)C2 | 2.5 µg/mL (≈ 6.57 µM)
O=C(NC12CC3CC(CC(C3)C1)C2)N[C@H]1CC[C@H](Oc2ccc(Br)cc2)CC1 | > 89 µg/mL
O=C(Nc1ccccc1)NC12CC3CC(CC(C3)C1)C2 | 14 µg/mL (≈ 51.8 µM)
C[C@H](NC(=O)Cc1ccc(NC(=O)NC23CC4CC(CC(C4)C2)C3)cc1)C(=O)N[C@@H](Cc1c[nH]c2ccccc12)C(=O)O | 66 µg/mL (≈ 113 µM)
CN1CCN(CCCOc2ccc(NC(=O)NC34CC5CC(CC(C5)C3)C4)cc2)CC1 | 62 µg/mL (≈ 145 µM)
O=C(Nc1ccc(OC(=O)c2ccccc2)cc1)NC12CC3CC(CC(C3)C1)C2 | 39 µg/mL (≈ 99.9 µM)
O=C(NC12CC3CC(CC(C3)C1)C2)N[C@H]1CC[C@H](OCC2CCCCC2)CC1 | > 78 µg/mL
O=C(Nc1ccc(OCCN2CCOCC2)cc1Cl)NC12CC3CC(CC(C3)C1)C2 | > 87 µg/mL
O=C(Nc1cccc(C(=O)NCCN2CCOCC2)c1)NC12CC3CC(CC(C3)C1)C2 | > 30 µg/mL
O=C(Nc1ccc(OC(F)(F)F)cc1)Nc1ccc(OC(F)(F)F)cc1 | 4.75 µg/mL (≈ 12.5 µM)
O=C(Nc1ccc(OC2CCOC2=O)cc1)NC12CC3CC(CC(C3)C1)C2 (configuration not stated) | > 37 µg/mL
O=C(Nc1ccc(O)cc1)NC12CC3CC(CC(C3)C1)C2 | 57 µg/mL (≈ 199 µM)
C=CCO[C@H]1CC[C@@H](NC(=O)NC23CC4CC(CC(C4)C2)C3)CC1 | > 66 µg/mL
CCCCOC(=O)CCCCCCCCCCCNC(=O)NC12CC3CC(CC(C3)C1)C2 | 5.61 µg/mL (≈ 12.5 µM)
CCc1ccc(OCCOCCOCCCCCNC(=O)NC23CC4CC(CC(C4)C2)C3)cc1 | 24 µg/mL (≈ 50.8 µM)
O=C(Nc1ccc(-n2ccnc2)cc1)NC12CC3CC(CC(C3)C1)C2 | > 44 µg/mL
CCC(=O)Oc1ccc(NC(=O)NC23CC4CC(CC(C4)C2)C3)cc1 | > 68 µg/mL
COc1ccc(NC(=O)NC23CC4CC(CC(C4)C2)C3)cc1O | 32 µg/mL (≈ 101 µM)
O=C(Nc1ccc(Oc2ccccc2)cc1)NC12CC3CC(CC(C3)C1)C2 | 0.1 µg/mL (≈ 0.276 µM)
O=C(NC12CC3CC(CC(C3)C1)C2)N[C@H]1CC[C@H](Oc2ccc(C(F)(F)F)cn2)CC1 | > 88 µg/mL
CC(=O)Oc1ccc(NC(=O)NC23CC4CC(CC(C4)C2)C3)cc1 | 66 µg/mL (≈ 201 µM)

Structure (SMILES) | MIC
O=C(NC12CC3CC(CC(C3)C1)C2)N[C@H]1CC[C@H](Oc2cccc(F)c2)CC1 | 14 µg/mL (≈ 36.2 µM)
CCOCCOCCOCCCCCNC(=O)NC12CC3CC(CC(C3)C1)C2 | > 79 µg/mL
O=C(Nc1ccc(O)c(Cl)c1)NC12CC3CC(CC(C3)C1)C2 | 2 µg/mL (≈ 6.23 µM)
CCOCCOCCOc1ccc(C(OC(=O)CCCNC(=O)NC23CC4CC(CC(C4)C2)C3)c2ccccc2)cc1 (configuration not stated) | > 116 µg/mL
CCCC(C)OCCOCCOCCCCCNC(=O)NC12CC3CC(CC(C3)C1)C2 (configuration not stated) | > 91 µg/mL
O=C(Nc1ccc(OCCN2CCOCC2)c(Cl)c1)NC12CC3CC(CC(C3)C1)C2 | 27 µg/mL (≈ 62.2 µM)
O=C(Nc1cccc(C(=O)N2CCC(N3CCOCC3)CC2)c1)NC12CC3CC(CC(C3)C1)C2 | > 93 µg/mL
O=C(Nc1ccc(N2CCOCC2)cc1)NC12CC3CC(CC(C3)C1)C2 | 18 µg/mL (≈ 50.6 µM)
COC(=O)CCc1ccc(NC(=O)NC23CC4CC(CC(C4)C2)C3)cc1 | 2.2 µg/mL (≈ 6.17 µM)
CSc1ccc(NC(=O)NC23CC4CC(CC(C4)C2)C3)cc1 | 1.5 µg/mL (≈ 4.74 µM)
O=C(NC12CC3CC(CC(C3)C1)C2)N[C@H]1CC[C@H](O)CC1 | > 58 µg/mL
O=C(NC12CC3CC(CC(C3)C1)C2)N[C@H]1CC[C@@H](Oc2cc(F)cc(F)c2)CC1 | 10 µg/mL (≈ 24.7 µM)
O=C(O)CCCc1ccc(NC(=O)NC23CC4CC(CC(C4)C2)C3)cc1 | 36 µg/mL (≈ 101 µM)
O=C(NCC#CCOc1ccc(F)cc1)NC12CC3CC(CC(C3)C1)C2 | 0.7 µg/mL (≈ 1.96 µM)
O=C(Nc1ccc(OCCN2CCOCC2)cc1)NC12CC3CC(CC(C3)C1)C2 | > 30 µg/mL
O=C(NCCCCOc1ccc(F)cc1)NC12CC3CC(CC(C3)C1)C2 | 2.25 µg/mL (≈ 6.24 µM)
O=C(Nc1ccc(C(=O)O)cc1)N[C@H]1CC[C@@H](Oc2ccc(F)cc2)CC1 | 4.65 µg/mL (≈ 12.5 µM)
O=C(NC12CC3CC(CC(C3)C1)C2)N[C@H]1CC[C@H](Oc2ccc(F)cc2)CC1 | > 39 µg/mL
O=C(NC12CC3CC(CC(C3)C1)C2)N[C@H]1CC[C@H](OCCCN2CCOCC2)CC1 | > 42 µg/mL
CCC(=O)Oc1cccc(NC(=O)NC23CC4CC(CC(C4)C2)C3)c1 | 17 µg/mL (≈ 49.6 µM)
O=C(NC12CC3CC(CC(C3)C1)C2)N[C@H]1CC[C@H](OCc2ccccc2)CC1 | > 77 µg/mL
CC(=O)c1ccccc1NC(=O)NC12CC3CC(CC(C3)C1)C2 | > 3.1 µg/mL
COc1ccc(O[C@H]2CC[C@@H](NC(=O)NC34CC5CC(CC(C5)C3)C4)CC2)cc1 | > 80 µg/mL
O=C(Nc1cccc(OCCCN2CCOCC2)c1)NC12CC3CC(CC(C3)C1)C2 | 32 µg/mL (≈ 77.4 µM)
COC(=O)c1cccc(NC(=O)NC23CC4CC(CC(C4)C2)C3)c1 | 1.2 µg/mL (≈ 3.65 µM)
COC(=O)c1ccc(NC(=O)NC23CC4CC(CC(C4)C2)C3)cc1 | 2 µg/mL (≈ 6.09 µM)

Structure (SMILES) | MIC
CC(C)c1ccc(NC(=O)NC2CCCCC2)cc1 | 3.25 µg/mL (≈ 12.5 µM)
O=C(NC12CC3CC(CC(C3)C1)C2)N[C@H]1CC[C@@H](OCc2c(F)cccc2F)CC1 | 42 µg/mL (≈ 100 µM)
O=C(NC12CC3CC(CC(C3)C1)C2)N[C@H]1CC[C@@H](Oc2ccc(F)cc2)CC1 | > 20 µg/mL
CCCCOCCCCCNC(=O)NC12CC3CC(CC(C3)C1)C2 | 2.1 µg/mL (≈ 6.24 µM)
O=C(Nc1ccccc1OCCCCN1CCOCC1)NC12CC3CC(CC(C3)C1)C2 | 21 µg/mL (≈ 49.1 µM)
O=C(Nc1cccc(C(=O)OCc2ccccc2)c1)NC12CC3CC(CC(C3)C1)C2 | 0.3 µg/mL (≈ 0.742 µM)
O=C(Nc1cccc(C(=O)N2CCOCC2)c1)NC12CC3CC(CC(C3)C1)C2 | > 77 µg/mL
O=C(Nc1ccc(OCCCCN2CCOCC2)cc1)NC12CC3CC(CC(C3)C1)C2 | 21 µg/mL (≈ 49.1 µM)
CC(=O)Nc1ccc(NC(=O)NC23CC4CC(CC(C4)C2)C3)cc1 | 65 µg/mL (≈ 199 µM)
CCOC(=O)C(C)Oc1ccc(NC(=O)NC23CC4CC(CC(C4)C2)C3)cc1 (configuration not stated) | 19 µg/mL (≈ 49.2 µM)
O=C(Nc1cccc(OCCCCN2CCOCC2)c1)NC12CC3CC(CC(C3)C1)C2 | 21 µg/mL (≈ 49.1 µM)
CCOCCOCCOc1ccc(NC(=O)NC23CC4CC(CC(C4)C2)C3)cc1 | 10 µg/mL (≈ 24.8 µM)
CN1CCN(CCCCOc2cccc(NC(=O)NC34CC5CC(CC(C5)C3)C4)c2)CC1 | 44 µg/mL (≈ 99.9 µM)
COC(=O)c1cc(NC(=O)NC23CC4CC(CC(C4)C2)C3)ccc1O | 1.1 µg/mL (≈ 3.19 µM)
CCCCCCCOCCNC(=O)NC12CC3CC(CC(C3)C1)C2 | 2.1 µg/mL (≈ 6.24 µM)
CC(C)(C)OC(=O)N1CCN(CCCOc2ccc(NC(=O)NC34CC5CC(CC(C5)C3)C4)cc2)CC1 | 6.21 µg/mL (≈ 12.1 µM)
CC(C)Oc1cc(F)c(CO[C@H]2CC[C@@H](NC(=O)NC34CC5CC(CC(C5)C3)C4)CC2)c(F)c1 | 6.7 µg/mL (≈ 14.1 µM)
O=C(Nc1ccccc1OCCCN1CCOCC1)NC12CC3CC(CC(C3)C1)C2 | 21 µg/mL (≈ 50.8 µM)
CO[C@H]1CC[C@@H](NC(=O)NC23CC4CC(CC(C4)C2)C3)CC1 | > 61 µg/mL
CO[C@H]1CC[C@H](NC(=O)NC23CC4CC(CC(C4)C2)C3)CC1 | > 61 µg/mL
O=C(Nc1cccc(OC(=O)c2ccccc2)c1)NC12CC3CC(CC(C3)C1)C2 | 2.4 µg/mL (≈ 6.15 µM)
CC(C)Oc1cc(F)c(CO[C@H]2CC[C@H](NC(=O)NC34CC5CC(CC(C5)C3)C4)CC2)c(F)c1 | 11.9 µg/mL (≈ 25 µM)
O=C(NC12CC3CC(CC(C3)C1)C2)N[C@H]1CC[C@H](OCc2ccc(Br)cc2)CC1 | > 92 µg/mL
COc1ccc(NC(=O)NC23CC4CC(CC(C4)C2)C3)cc1 | 1.88 µg/mL (≈ 6.26 µM)
CCOCCOCCOc1cccc(NC(=O)NC23CC4CC(CC(C4)C2)C3)c1 | 2.52 µg/mL (≈ 6.26 µM)
COc1ccc(O[C@H]2CC[C@H](NC(=O)NC34CC5CC(CC(C5)C3)C4)CC2)cc1 | > 80 µg/mL

target: T1, Bifunctional epoxide hydrolase 2 (Homo sapiens, UniProt P34913); assay: not given; conditions: not given;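 also: recombinant enzyme with CMNPC substrate, fluorescence readout of 6-methoxy-2-naphthaldehyde formed over a 10 min reaction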
T1 sequence (P34913 whole entry): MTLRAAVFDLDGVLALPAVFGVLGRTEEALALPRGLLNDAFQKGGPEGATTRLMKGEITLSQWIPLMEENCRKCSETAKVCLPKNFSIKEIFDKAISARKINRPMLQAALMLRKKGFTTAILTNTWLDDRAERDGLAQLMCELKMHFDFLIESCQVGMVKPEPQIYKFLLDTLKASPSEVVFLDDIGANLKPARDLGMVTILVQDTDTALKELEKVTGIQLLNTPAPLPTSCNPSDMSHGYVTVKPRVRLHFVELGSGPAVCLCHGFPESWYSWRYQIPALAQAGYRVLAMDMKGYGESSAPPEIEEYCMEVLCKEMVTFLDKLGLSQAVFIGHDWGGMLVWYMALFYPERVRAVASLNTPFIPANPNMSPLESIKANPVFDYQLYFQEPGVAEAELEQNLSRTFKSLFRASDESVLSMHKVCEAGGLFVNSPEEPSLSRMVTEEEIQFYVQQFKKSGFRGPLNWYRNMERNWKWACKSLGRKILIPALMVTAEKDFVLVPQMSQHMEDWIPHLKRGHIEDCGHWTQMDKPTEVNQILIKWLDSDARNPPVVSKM

Structure (SMILES) | IC50
O=C(Nc1cccc(OC(F)F)c1)NC12CC3CC(CC(C3)C1)C2 | 2.6 nM
CC(=O)c1ccc(NC(=O)NC23CC4CC(CC(C4)C2)C3)cc1 | 6.3 nM
O=C(Nc1ccc(OCCN2CCOCC2)cc1Cl)NC12CC3CC(CC(C3)C1)C2 | 2.4 nM
O=C(Nc1ccc(OC(F)(F)F)cc1)Nc1ccc(OC(F)(F)F)cc1 | 9.6 nM
C=CCO[C@H]1CC[C@@H](NC(=O)NC23CC4CC(CC(C4)C2)C3)CC1 | 1.3 nM
O=C(Nc1ccc(Oc2ccccc2)cc1)NC12CC3CC(CC(C3)C1)C2 | 0.5 nM
O=C(NC12CC3CC(CC(C3)C1)C2)N[C@H]1CC[C@H](Oc2ccc(C(F)(F)F)cn2)CC1 | 4.8 nM
O=C(Nc1ccc(O)c(Cl)c1)NC12CC3CC(CC(C3)C1)C2 | 5.1 nM
CCOCCOCCOc1ccc(C(OC(=O)CCCNC(=O)NC23CC4CC(CC(C4)C2)C3)c2ccccc2)cc1 (configuration not stated) | 5.1 nM
CCCC(C)OCCOCCOCCCCCNC(=O)NC12CC3CC(CC(C3)C1)C2 (configuration not stated) | 6.2 nM
O=C(Nc1ccc(OCCN2CCOCC2)c(Cl)c1)NC12CC3CC(CC(C3)C1)C2 | 0.6 nM
O=C(Nc1ccc(N2CCOCC2)cc1)NC12CC3CC(CC(C3)C1)C2 | 5.2 nM
COC(=O)CCc1ccc(NC(=O)NC23CC4CC(CC(C4)C2)C3)cc1 | 2 nM
CSc1ccc(NC(=O)NC23CC4CC(CC(C4)C2)C3)cc1 | 1.6 nM
